Measured values taken from a melting point compilation (Tetko et al.; mined from patent text by program, amines drawn as free bases though some values may be those of a salt).

**Q.** For CCc1nc2cnc3cc(Br)cnc3c2n1CC(C)(C)O, which melting point is on record?
**A.** 207 to 208 °C

**Q.** Which melting point does the source give for O=C(NCc1ccc(Cl)cc1)c1cn(CCN2CCCCC2)c2ccc(C#CCO)cc2c1=O here?
**A.** 176 to 180 °C

**Q.** With CCOC(=O)c1ccc(C(C(N)=O)C(C)c2cc(N)ccc2N2CCCCC2)cc1 (stereo not given) as the molecule, how does the melting point read?
**A.** 148 to 150 °C

**Q.** For CCn1c(=O)c2c(nc(/C=C/c3cccc(OC(=O)c4ccccc4)c3)n2C)n(CC)c1=O, which melting point is on record?
**A.** 223 to 224 °C

**Q.** With COc1cc2c(cc1N1CCN(C)CC1)N(C(=O)c1ccc(-c3ccc(-c4noc(C)n4)cc3C)cc1)CC2 as the molecule, how does the melting point read?
**A.** 213 to 214 °C

**Q.** For C#CCn1c(I)cc(C(O)CC)c(C)c1=O (stereo not given), which melting point is on record?
**A.** 126 to 127 °C

**Q.** With Cc1cnc2c(NC(=O)c3ccccc3[N+](=O)[O-])cccc2c1-n1ccnc1 as the molecule, how does the melting point read?
**A.** 199 to 204 °C

**Q.** With Cc1ccsc1C1CC(=O)c2c(C)ccnc2C1 (stereo not given) as the molecule, how does the melting point read?
**A.** 104 to 105 °C

**Q.** With CC(C)N1CCC(CN2CCN(CC3CCN(C(C)C)CC3)C2=C(C#N)C#N)CC1 as the molecule, how does the melting point read?
**A.** 172 to 174 °C

**Q.** For O=C(c1ccc(Sc2ccccc2)cc1)c1ccc(O)cc1O, which melting point is on record?
**A.** 117 to 118 °C

**Q.** Which melting point does the source give for COc1ncc(OC)c(NC#N)n1 here?
**A.** 164 to 171 °C

**Q.** For CC(=O)c1ccccc1NC(c1c(Cl)cccc1Cl)C1CC1 (stereo not given), which melting point is on record?
**A.** 116 °C

**Q.** For CC1(C)C(=O)Nc2ccc(-c3cc(F)cc(Cl)c3)cc21, which melting point is on record?
**A.** 206 to 207 °C

**Q.** Which melting point does the source give for CCCN1C(=O)N2C[C@@H](Cc3ccccc3)N=C2c2[nH]c(CSCC)nc21 here?
**A.** 178 to 180 °C

**Q.** For COc1ccc2[nH]cc(CC3=CCCN(CCCC(O)c4ccc(F)cc4)C3)c2c1 (stereo not given), which melting point is on record?
**A.** 160 to 170 °C

**Q.** With COc1cc(Cl)ccc1C(=O)Nc1ccc(C(=O)N2Cc3ccccc3Cc3ccccc32)cc1 as the molecule, how does the melting point read?
**A.** 237 to 239 °C

**Q.** Which melting point does the source give for CCOC(=O)c1ccc(NC(=O)C=C(c2ccc(F)cc2)c2ccc(F)cc2)cc1 here?
**A.** 161 to 163 °C

**Q.** Which melting point does the source give for C#CCOc1ccc(C(=O)C=Cc2ccc(C#N)cc2)c(O)c1 here?
**A.** 188 to 190 °C

**Q.** Which melting point does the source give for CC(C)(C)c1ccc(S(=O)(=O)Nc2ncnc(OCCO)c2Br)cc1 here?
**A.** 146 to 148 °C

**Q.** Which melting point does the source give for CC(C(=O)N(C)C)n1cc(C#N)c(-c2ccccc2)n1 (stereo not given) here?
**A.** 143 to 146 °C

**Q.** Which melting point does the source give for CCCOc1ccc(S(=O)(=O)N2CCCC(C(=O)OCC)C2)cc1-c1nc2cc(Cl)c([N+](=O)[O-])cc2c(=O)[nH]1 (stereo not given) here?
**A.** 196 to 197 °C

**Q.** With CC(O)COC1CCNCC1 (stereo not given) as the molecule, how does the melting point read?
**A.** 55 to 57 °C

**Q.** Which melting point does the source give for Cc1c(Cl)cc([N+](=O)[O-])c(NC(C)C)c1[N+](=O)[O-] here?
**A.** 69 to 73 °C

**Q.** For CC(C)C[C@H](NC(=O)c1ccc2c(c1)Nc1ccccc1S2)C(=O)N[C@@H](CC(C)C)C(=O)N[C@@H](CC(C)C)C(=O)N[C@H]1CCOC1O (stereo not given in full), which melting point is on record?
**A.** 174 to 176 °C

**Q.** Which melting point does the source give for Cc1ccc(-c2ccc3c(c2)C=C(C(=O)Nc2ccc(CSc4ccccc4)cc2)CCO3)cc1 here?
**A.** 176 to 177 °C

**Q.** Which melting point does the source give for CC(C)CCS(=O)(=O)NC(=O)/C=C/c1cc(OC2CCOCC2)nn1Cc1ccc(Cl)cc1Cl here?
**A.** 143 to 144 °C

**Q.** With CCOC(=O)c1c(N)c(C)nn1C as the molecule, how does the melting point read?
**A.** 55.5 to 56.5 °C

**Q.** With CC(C)n1cc(-c2c(-c3ccccc3)nn3ccncc23)ccc1=O as the molecule, how does the melting point read?
**A.** 196 to 197 °C

**Q.** With C[C@@H](Nc1c(Nc2ccc(C#N)c(Cl)c2)c(=O)c1=O)C(C)(C)C as the molecule, how does the melting point read?
**A.** > 300 °C

**Q.** For COC(=O)c1ccc(Cn2nc(OCc3ccccc3)c3ccc(NC(=O)CC4CCCC4)cc32)c(OC)c1, which melting point is on record?
**A.** 139 to 140 °C

**Q.** For CSc1sc(C(N)=O)c2c1-c1nn(C)cc1CC2, which melting point is on record?
**A.** 285 to 286 °C

**Q.** For COc1cc2c(cc1-c1cccnc1)-c1c(C3NCCO3)c3c(n1CC2)C(=O)N(C(C)(C)C)CCC3 (stereo not given), which melting point is on record?
**A.** 218 to 220 °C

**Q.** With CCOC(=O)C(F)=C(C)NC(=O)Nc1cc(C(=O)OC(C)C)c(Cl)cc1F as the molecule, how does the melting point read?
**A.** 150 to 152 °C

**Q.** With CCc1cc2c(c(Sc3ccccc3)cc(=O)n2Cc2ccc(-c3ccccc3-c3nnn(C(c4ccccc4)(c4ccccc4)c4ccccc4)n3)cc2)c(CC)n1 as the molecule, how does the melting point read?
**A.** 156 to 158 °C

**Q.** For CCOC(=O)NC(=S)NC(C)C, which melting point is on record?
**A.** 52.5 to 54 °C

**Q.** For O=[N+]([O-])c1ccc2c(c1)OCC2, which melting point is on record?
**A.** 71 to 72 °C

**Q.** With COc1ccc(S(=O)(=O)N(Cc2cccnc2)c2c(C(=O)O)cnc3cc(C)nn23)cc1 as the molecule, how does the melting point read?
**A.** 249 to 251 °C

**Q.** Which melting point does the source give for CC#Cc1[nH]c(=O)n2c1CN(C)Cc1cc(F)ccc1-2 here?
**A.** 219 to 220 °C

**Q.** For Cc1ccc(C(=O)c2ccc(Cl)cc2)c(Cl)c1, which melting point is on record?
**A.** 58 to 60.5 °C

**Q.** With O=C1OCc2c1cc1ccc3c(c1c2-c1ccc2ccccc2c1)OCO3 as the molecule, how does the melting point read?
**A.** 224 to 226 °C

**Q.** With Cc1c(C)c2c(c(C)c1NC(=O)CC(C)(C)C)C(c1ccc(C(C)C)cc1)C1(CCCC1)O2 (stereo not given) as the molecule, how does the melting point read?
**A.** 209 to 210 °C

**Q.** For CCCCCCCCCCCCCCCCCCOCC(O)Cn1cnc2c(N)ncnc21 (stereo not given), which melting point is on record?
**A.** 151 to 152 °C

**Q.** With CCOC(=O)c1cc2cc(OCCCOC)cc(N(C)S(=O)(=O)c3ccccn3)c2[nH]1 as the molecule, how does the melting point read?
**A.** 98 to 99 °C

**Q.** With CCCCCCCCCCCCCCCCCCNC(=O)OCC(CNS(=O)(=O)CCCCl)COC (stereo not given) as the molecule, how does the melting point read?
**A.** 72 to 73 °C

**Q.** With COC(=O)Cc1c(OC)ncnc1Oc1cccc(C(C)=O)c1 as the molecule, how does the melting point read?
**A.** 65 to 67 °C

**Q.** With NC(=S)N1CCN(C=O)CC1 as the molecule, how does the melting point read?
**A.** 118 °C

**Q.** Which melting point does the source give for O=S1(=O)CCN(c2ccc(O)cc2)CC1 here?
**A.** 153 to 155 °C

**Q.** Which melting point does the source give for Oc1c(Br)cc(Br)c2c(Cl)ncnc12 here?
**A.** 198 to 199 °C

**Q.** With O=S(=O)(Oc1ccc2ccccc2c1-c1nnc(Cl)c2ccccc12)C(F)(F)F as the molecule, how does the melting point read?
**A.** 54 to 55 °C

**Q.** For O=C1Cc2cc(Oc3ccccc3Cl)ccc2N1, which melting point is on record?
**A.** 139 to 140 °C

**Q.** Which melting point does the source give for N#Cc1cccc(C(CC(=O)O)N2C(=O)c3ccccc3C2=O)c1 (stereo not given) here?
**A.** 217 to 220 °C

**Q.** With CN(C)C1(c2ccccc2)CCC(CNC(=O)N2CCC(c3c[nH]c4ccc(Cl)cc34)CC2)CC1 (stereo not given) as the molecule, how does the melting point read?
**A.** 140 to 143 °C

**Q.** Which melting point does the source give for CN(C)C(=O)c1cc(OCc2ccccc2)c2nc(C(F)(F)F)n(C)c2c1 here?
**A.** 144 to 146 °C

**Q.** For COC(=N)c1ncn(C2OC(CO)C(O)C2O)n1 (stereo not given), which melting point is on record?
**A.** 150 to 153 °C

**Q.** Which melting point does the source give for O=C1C=C(NC(=O)C(=O)c2cn(Cc3ccc(Cl)cc3)c3cccc(NC(=O)c4ccc(Cl)cc4)c23)CO1 here?
**A.** > 300 °C

**Q.** Which melting point does the source give for COc1cc2nc(N3CCN(C(=O)C=Cc4cc(OC)c(OC)c(OC)c4)CC3)nc(N)c2cc1OC here?
**A.** 141 to 146 °C

**Q.** For Nc1ccc2nc(-c3ccc4c(c3)OCCO4)ncc2c1, which melting point is on record?
**A.** 179 to 182 °C

**Q.** With COC(=O)c1cc(Cl)c(Oc2ccc(O)cc2)c(Cl)c1 as the molecule, how does the melting point read?
**A.** 152 to 155 °C

**Q.** For CCc1cc2c3c(ccc2[nH]1)OCC(CN1CC=C(c2c[nH]c4ccc(F)cc24)CC1)O3 (stereo not given), which melting point is on record?
**A.** 81 to 82 °C

**Q.** Which melting point does the source give for COc1cccc(C23CCCC(C2)NC3=O)c1 (stereo not given) here?
**A.** 109 to 111 °C

**Q.** With CC(OC(=O)Nc1ccccc1)c1ccccc1[N+](=O)[O-] (stereo not given) as the molecule, how does the melting point read?
**A.** 74 to 75 °C

**Q.** For O=C1Cc2ccc(SCc3ccccc3)cc2N1, which melting point is on record?
**A.** 132 to 134 °C

**Q.** With CC(C)(C)OC(=O)N1C(=O)c2ccccc2C1=O as the molecule, how does the melting point read?
**A.** 90 to 92 °C

**Q.** Which melting point does the source give for CSc1ccc(-c2nc(SC)c(C#N)c(=O)n2-c2ccc(C(C)(C)C)cc2)cc1 here?
**A.** 233 to 236 °C

**Q.** Which melting point does the source give for CCOc1ccc(CC(=O)Cc2csc(-c3ccc(OC)c(OC)c3)n2)cc1OCC here?
**A.** 141 to 142 °C

**Q.** With CC(=O)SCC(=Cc1ccc2c(c1)OCO2)C(=O)NCCC(=O)OCc1ccccc1 as the molecule, how does the melting point read?
**A.** 76 °C

**Q.** For O=C(NCc1ccc(Cl)cc1)c1cnc2sc(CCCO)cc2c1O, which melting point is on record?
**A.** 185 to 186 °C

**Q.** With CCOC(=O)CCCCCN1CCC[C@@H](NCc2ccccc2OC)[C@H]1c1ccccc1 (racemic) as the molecule, how does the melting point read?
**A.** 80 to 95 °C

**Q.** For Cc1c(Cl)nnc(Cl)c1C, which melting point is on record?
**A.** 80 to 82 °C

**Q.** For O=C(NCCc1ccc(I)cc1)C(F)(F)F, which melting point is on record?
**A.** 136 to 138 °C
